Among the test systems are HS 578T breast; SN12C renal; UACC-62 melanoma; UO-31 renal.
What all share (assay): inhibition of tumour cell growth, NCI panel, 48 h

Structures are written as SMILES.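 Each compound was tested at five concentrations against cells in 96-well plates for 48 hours. At the GI50, growth is halved. TGI: total growth inhibition.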

For `COc1cc(/C=C2\CN(S(=O)(=O)c3ccc(C)cc3)C/C(=C\c3cc(CN4CCCCC4)c(O)c(OC)c3)C2=O)cc(CN2CCCCC2)c1O`, the GI50 in the assay with HS 578T breast was 1920 nM; with SN12C renal, 1770 nM; in the assay with UACC-62 melanoma, 1630 nM; in the assay on UO-31 renal, 1600 nM. The TGI in the assay on HS 578T breast stood at 4.5 µM; with SN12C renal it was 3.42 µM; with UACC-62 melanoma it was 3.32 µM; with UO-31 renal it was 3.03 µM.
